Results from the supplement of paper PMC6045584.

Key:
Experiment in all cases: area under dose-response curve of surviving fraction (unscaled, Aref=0) (surviving fraction x log10(nM)); higher = more resistant
Conditions in all cases: exposure time: 5 days; dose range 0.5-1000 nM
[1] = compound: C#Cc1cccc(Nc2ncnc3cc(OCCOC)c(OCCOC)cc23)c1 [ERLOTINIB]
How it was run: (§1)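 Surviving fractions were fitted by 3-parameter logistic regression in the drc R package to give dose-response survival curves. They came from tumour cell lines treated for five days with eight inhibitor concentrations from 0.5 to 1000 nM and read by CellTiter-Glo luminescence against DMSO-only wells. The area under the curve is the unscaled activity area. It was calculated over log10 dose with Aref = 0.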

[2] = compound: CCC1=C[C@@H]2CN(C1)Cc1c([nH]c3ccccc13)[C@@](C(=O)OC)(c1cc3c(cc1OC)N(C)[C@H]1[C@@](O)(C(=O)OC)[C@H](OC(C)=O)[C@]4(CC)C=CCN5CC[C@]31[C@@H]54)C2 [VINORELBINE]
How it was run: as §1

[3] = compound: CCCS(=O)(=O)Nc1ccc(F)c(C(=O)c2c[nH]c3ncc(Cl)cc23)c1F [PLX-4720]
How it was run: as §1

[4] = compound: CCN(CC)CCNC(=O)c1c(C)[nH]c(/C=C2\C(=O)Nc3ccc(F)cc32)c1C [SUNITINIB]
How it was run: as §1

[5] = compound: CN(Cc1cnc2nc(N)nc(N)c2n1)c1ccc(C(=O)N[C@@H](CCC(=O)O)C(=O)O)cc1 [METHOTREXATE]
How it was run: as §1

[6] = compound: CO[C@H]1C[C@@H]2CC[C@@H](C)[C@@](O)(O2)C(=O)C(=O)N2CCCC[C@H]2C(=O)O[C@H]([C@H](C)C[C@@H]2CC[C@@H](OCCO)[C@H](OC)C2)CC(=O)[C@H](C)/C=C(\C)[C@@H](O)[C@@H](OC)C(=O)[C@H](C)C[C@H](C)/C=C/C=C/C=C/1C [EVEROLIMUS]
How it was run: as §1

[7] = compound: COc1cc(CCc2cc(NC(=O)c3ccc(N4CC(C)NC(C)C4)cc3)n[nH]2)cc(OC)c1 [AZD4547]
How it was run: as §1

[8] = compound: COc1cc([C@@H]2c3cc4c(cc3[C@@H](O[C@@H]3O[C@@H]5CO[C@@H](C)O[C@H]5[C@H](O)[C@H]3O)[C@H]3COC(=O)[C@H]23)OCO4)cc(OC)c1O [ETOPOSIDE]
How it was run: as §1

[9] = compound: Cc1nc(Nc2n[nH]c3c2CN(C(=O)N[C@H](CN(C)C)c2ccccc2)C3(C)C)c2sccc2n1
How it was run: as §1

[10] = compound: NC1(c2ccc(-c3nc4ccn5c(=O)[nH]nc5c4cc3-c3ccccc3)cc2)CCC1 [MK2206]
How it was run: as §1

[11] = compound: O=C(NOCC1CC1)c1ccc(F)c(F)c1Nc1ccc(I)cc1Cl
How it was run: as §1

[12] = compound: O=C(O)CC[C@H]1CC[C@@](c2cc(F)ccc2F)(S(=O)(=O)c2ccc(Cl)cc2)CC1 [MK0752]
How it was run: as §1

[13] = compound: Nc1ccn([C@@H]2O[C@H](CO)[C@@H](O)C2(F)F)c(=O)n1 [GEMCITABINE]
How it was run: as §1

Row | Test System | area under dose-response curve [1] | area under dose-response curve [2] | area under dose-response curve [3] | area under dose-response curve [4] | area under dose-response curve [5] | area under dose-response curve [6] | area under dose-response curve [7] | area under dose-response curve [8] | area under dose-response curve [9] | area under dose-response curve [10] | area under dose-response curve [11] | area under dose-response curve [12] | area under dose-response curve [13]
1 | 22RV1 PROSTATE | 3.31 | 1.53 | 3.09 | 3.06 | 2.21 | 1.48 | 3.43 | 2.73 | 1.33 | 2.65 | 2.6 | 3.57 | –
2 | 93VU HEADNECK | 2.99 | 2.19 | 3.02 | 2.8 | – | 2.71 | 3.56 | 3.41 | 1.18 | – | 2.54 | 3.92 | 2
3 | 143B BONE | – | 1.92 | – | 3.19 | – | – | 2.83 | 3.04 | 1.67 | – | 3.23 | 3.49 | –
4 | A549 LUNG | 3.49 | 2.2 | 3.13 | 3.13 | 2.14 | 2.81 | 3.33 | – | 1.86 | 3.54 | 3.13 | 3.48 | 1.76
5 | CADOES1 SOFT TISSUE | 2.74 | 2.63 | 3.09 | 3.22 | 1.82 | 1.49 | 3.23 | 3 | 2.56 | 2.82 | 2.87 | 3.14 | 1.18
6 | CAL51 BREAST | 3.36 | 1.28 | 3.19 | 2.99 | 1.91 | 1.23 | 2.67 | 2.79 | 0.818 | 3.16 | 3.12 | 3.32 | 0.99
7 | CAL120 BREAST | 3.02 | 1.59 | 2.96 | 2.74 | 1.67 | 1.62 | 2.59 | 2.9 | 1.08 | 3.14 | 2.97 | 3.37 | –
8 | CASKI CERVIX | 2.27 | 1.27 | 3 | 2.3 | 2.23 | – | 3.17 | 2.72 | 0.674 | 2.5 | 2.58 | 3.28 | 1.01
9 | CHLA90 AUTONOMIC GANGLIA | 3.07 | 1.69 | 2.66 | 2.21 | 3.53 | 1.36 | 2.77 | 2.94 | 1.57 | 3.16 | 2.38 | 3.36 | 1.39
10 | COLO320DM LARGE INTESTINE | 3.34 | 3.2 | 3.03 | 2.59 | 1.92 | 2.62 | 3.59 | 3.54 | 2.68 | 3.11 | 3.26 | 3.87 | 1.53
11 | DU4475 BREAST | 3.44 | 1.96 | 1.92 | 2.1 | 3.28 | 0.518 | 3.5 | 1.65 | 0.457 | 2.76 | 1.65 | 3.26 | 1.48
12 | H23 LUNG | 2.52 | 1.74 | 3.19 | 2.86 | 1.75 | 1.76 | 3.37 | 3.08 | 1.47 | 3.04 | 2.08 | 3.65 | 1.22
13 | HCC38 BREAST | 4.24 | 2.07 | 3.09 | – | – | 2.92 | 2.93 | – | 1.16 | 4.11 | 3.59 | 4.01 | 1.01
14 | HCC70 BREAST | 3.46 | 1.66 | 3.36 | 3.4 | 3 | 1.89 | 3.63 | 3.16 | 0.85 | 2.8 | 2.8 | 3.56 | 1.12
15 | HCC78 LUNG | 2.89 | 1.48 | 3.25 | 2.96 | 2.26 | 1.75 | 3.56 | 2.45 | 1.31 | 2.5 | 2.58 | 3.32 | 0.382
16 | HCC1954 BREAST | 2.94 | 1.3 | 1.55 | 1.44 | 3.57 | 1.2 | 3.05 | 2.69 | 1.63 | 3.11 | 3.07 | 3.08 | 1.75
17 | HCT15 LARGE INTESTINE | 3.48 | 2.64 | 2.63 | 2.37 | 1.59 | 1.86 | 3.52 | 3.09 | 2.81 | 3.46 | 2.63 | 3.61 | 1.15
18 | HELA CERVIX | 3.61 | 1.64 | 3.26 | 3.08 | 2.22 | 3.58 | 3.71 | 3.04 | 2.12 | 3.72 | – | 3.42 | 1.75
19 | HOS BONE | 3.4 | 1.78 | 3.19 | 3.1 | 1.32 | 2.56 | 3.24 | 2.45 | 1.45 | 3.15 | 3.27 | 3.51 | 0.975
20 | HOSMNG BONE | 3.19 | 2.25 | – | 3.15 | 1.71 | 3.27 | 3.3 | – | 2.58 | 2.72 | 3.32 | 3.3 | 1.49
21 | HS578T BREAST | – | 1.28 | 2.96 | – | 2.46 | 1.77 | 3.18 | 2.59 | 1.45 | 2.94 | 3.18 | 3.05 | 3.12

Row | Test System | area under dose-response curve [1] | area under dose-response curve [2] | area under dose-response curve [3] | area under dose-response curve [4] | area under dose-response curve [5] | area under dose-response curve [6] | area under dose-response curve [7] | area under dose-response curve [8] | area under dose-response curve [9] | area under dose-response curve [10] | area under dose-response curve [11] | area under dose-response curve [12] | area under dose-response curve [13]
22 | HSSYII SYNOVIAL | 3.37 | 0.855 | 2.43 | 1.93 | 2.96 | 1.79 | 1.51 | 2.41 | 1.02 | 3.02 | 2.61 | 3.29 | 0.795
23 | HT1080 SOFT TISSUE | 3.44 | 1.38 | 3.25 | 3.16 | 1.8 | 2.11 | – | 2.29 | 1.07 | 3.42 | 3.16 | 3.29 | 1.22
24 | JIMT1 BREAST | 3.16 | 1.24 | 3.05 | 2.96 | 1.69 | 1.88 | 3.41 | 3.23 | 2.28 | 3.01 | 3.11 | 3.29 | 1.44
25 | KPD BONE | 3.57 | 2.29 | 3.19 | 3.08 | 3.55 | 1.44 | 3.14 | 2.77 | 1.06 | 2.3 | 3.25 | 3.43 | –
26 | LM7 BONE | 3.61 | 1.45 | 2.76 | 2.46 | 3 | 2.56 | 3.11 | 3.06 | 1.39 | 2.88 | – | 3.27 | 1.12
27 | MCF7 BREAST | 3.32 | 2.07 | 2.81 | 2.56 | 2.23 | 1.74 | 3.09 | 2.83 | 2.09 | 2.79 | 2.83 | 3.07 | 1.94
28 | MDAMB134 BREAST | 3.65 | 2.38 | 2.51 | 2.75 | 3.13 | 2.21 | 3.23 | 3.5 | 3.15 | 2.78 | 2.87 | 3.51 | –
29 | MDAMB231 BREAST | 3.4 | 1.77 | 3.25 | 3.4 | 3.12 | 2.01 | 3.37 | 3.08 | 1.79 | 3.09 | 3.01 | 3.28 | 2.29
30 | MDAMB453 BREAST | – | 1.31 | 3.35 | 3.27 | 2.93 | 1.43 | 2.88 | 3.71 | 1.76 | 2.65 | 3.37 | 3.54 | 1.47
31 | PCI30 HEADNECK | 2.96 | 1.21 | 3.34 | 3.77 | – | 1.71 | 3.56 | 3.08 | 1.83 | 2.94 | 2.75 | 3.5 | 1.8
32 | RDES SOFT TISSUE | 4.03 | 1.91 | 2.9 | 2.98 | 1.28 | 3.46 | – | 2.91 | 2.66 | – | 4.3 | 3.76 | 1.4
33 | S68 BREAST | – | 1.53 | 2.92 | 2.58 | 3.64 | 1.39 | 3.45 | 2.65 | 1.4 | 2.5 | 2.84 | 3.26 | 1.22
34 | SG32 HEADNECK | 3.57 | 1.95 | 2 | 1.96 | 3.65 | – | 3.26 | – | 1.04 | 3.68 | 2.65 | 3.82 | 1.77
35 | SG43 HEADNECK | 2.23 | 1.93 | 3.93 | 3.53 | 2.93 | 3.01 | 2.62 | 2.8 | – | 2.3 | 2.18 | 3.25 | 2.1
36 | SJSA1 BONE | – | 2.09 | 3.17 | 3.16 | 5.58 | 5.2 | 3.5 | 3.13 | 1.92 | 3.03 | 3.08 | 3.53 | 5.62
37 | SKBR3 BREAST | 3.55 | 1.38 | 3.02 | 2.46 | 2.7 | 1.31 | 3.75 | 3.1 | 1.62 | 2.48 | – | 3.29 | 1.76
38 | SUM44 BREAST | 4.26 | 1.61 | 3.17 | – | 3.95 | 2.5 | 3.48 | 3.47 | 3.07 | – | 3.4 | 3.38 | –
39 | SUM149.B1*.S BREAST | 3.76 | 2.37 | – | 2.35 | – | 3.22 | 3.88 | – | 1.97 | 3.63 | 2.74 | 3.78 | 1.44
40 | VCAP PROSTATE | 3.63 | 1.32 | 3.22 | 3.14 | 3.36 | 3.02 | – | – | 1.29 | 2.65 | 3.17 | 3.78 | 1.1
41 | YAMATO SYNOVIAL | 4.34 | 2.04 | 2.65 | 1.58 | 2.44 | 2.2 | – | – | 2.79 | 2.75 | 3.26 | 4.77 | 1.25
